Reference: ChEMBL document CHEMBL4229562, “Introduction of a Methyl Group Curbs Metabolism of Pyrido[3,4- d]pyrimidine Monopolar Spindle 1 (MPS1) Inhibitors and Enables the Discovery of the Phase 1 Clinical Candidate N2-(2-Ethoxy-4-(4-methyl-4 H-1,2,4-triazol-3-yl)phenyl)-6-methyl- N8-neopentylpyrido[3,4- d]pyrimidine-2,8-diamine …” (J Med Chem, 2018)
≈ marks a conversion by molar mass, not a printed value.

What was measured:
[1] = Lipophilicity, log P of the compound; assay type: physicochemical; details: octanol/water
[2] = target: T1, Dual specificity protein kinase TTK (Homo sapiens, UniProt P33981)
T1 sequence (P33981 whole entry): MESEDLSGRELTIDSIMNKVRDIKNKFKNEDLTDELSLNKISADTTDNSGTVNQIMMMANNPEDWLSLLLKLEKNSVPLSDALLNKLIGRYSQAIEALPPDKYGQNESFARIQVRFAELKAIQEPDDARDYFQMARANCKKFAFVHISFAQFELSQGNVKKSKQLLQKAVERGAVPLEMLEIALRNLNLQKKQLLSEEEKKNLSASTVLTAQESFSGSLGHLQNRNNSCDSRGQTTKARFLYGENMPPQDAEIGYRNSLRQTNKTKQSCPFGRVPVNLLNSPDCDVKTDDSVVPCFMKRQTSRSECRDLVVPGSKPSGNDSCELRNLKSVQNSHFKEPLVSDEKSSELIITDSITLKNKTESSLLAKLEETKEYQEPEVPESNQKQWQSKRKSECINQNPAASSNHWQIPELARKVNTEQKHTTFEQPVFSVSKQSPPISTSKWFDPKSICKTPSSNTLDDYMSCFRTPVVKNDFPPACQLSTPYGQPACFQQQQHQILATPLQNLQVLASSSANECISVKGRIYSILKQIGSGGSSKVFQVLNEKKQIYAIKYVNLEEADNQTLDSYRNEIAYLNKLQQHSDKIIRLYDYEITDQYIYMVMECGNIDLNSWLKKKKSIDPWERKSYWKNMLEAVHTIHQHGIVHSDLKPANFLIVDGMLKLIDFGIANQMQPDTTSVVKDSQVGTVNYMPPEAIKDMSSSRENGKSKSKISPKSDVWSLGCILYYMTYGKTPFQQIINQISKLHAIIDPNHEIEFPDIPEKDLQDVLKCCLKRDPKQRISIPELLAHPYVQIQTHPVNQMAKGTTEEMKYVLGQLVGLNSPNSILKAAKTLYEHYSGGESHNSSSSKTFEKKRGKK
Description: Inhibition of MPS1 autophosphorylation at Thr33/Ser37 in human HCT116 cells after 2 hrs by MSD assay

[3] = target: T1, Dual specificity protein kinase TTK; remark: listed apart in the source
Description: Inhibition of full length human N-terminal 6xHis-tagged MPS1 expressed in baculovirus expression system using 5FAM-H236 peptide as substrate after 60 to 90 mins by caliper assay

CDK2/Cyclin A2 = CDK2/Cyclin A2 (Homo sapiens, UniProt P24941)
[4] = Intrinsic clearance in CD1 mouse liver microsomes assessed per mg protein at 1 uM preincubated for 10 mins followed NADPH/UDP-glucuronic acid addition and measured after 30 mins by LC-MS/MS analysis; assay type: ADME, microsome; details: 0.5 h
[5] = Intrinsic clearance in human liver microsomes assessed per mg protein at 1 uM preincubated for 10 mins followed NADPH/UDP-glucuronic acid addition and measured after 30 mins by LC-MS/MS analysis; assay type: ADME, microsome; details: 0.5 h
Rattus norvegicus [6] = experiment: Oral bioavailability in rat at 5 mg/kg by ESI-LCMS/MS analysis; assay type: ADME, organism-based; details: in vivo
Rattus norvegicus [7] = experiment: Half life in rat at 5 mg/kg, iv by ESI-LCMS/MS analysis; assay type: ADME, organism-based; details: in vivo
[8] = Clearance in rat at 5 mg/kg, iv by ESI-LCMS/MS analysis; assay type: ADME, organism-based; details: in vivo
[9] = Protein binding in mouse plasma; assay type: ADME, cell-free
[10] = Cmax in mouse at 5 mg/kg, po by ESI-LCMS/MS analysis; assay type: ADME, organism-based; design: dose 5 mg/kg, route oral; details: in vivo
[11] = Volume of distribution at steady state in mouse at 5 mg/kg, iv by ESI-LCMS/MS analysis; assay type: ADME, organism-based; details: in vivo, read-out: Vdss
[12] = Volume of distribution at steady state in rat at 5 mg/kg, iv by ESI-LCMS/MS analysis; assay type: ADME, organism-based; details: in vivo, read-out: Vdss
[13] = Clearance in mouse at 5 mg/kg, iv by ESI-LCMS/MS analysis; assay type: ADME, organism-based; details: in vivo
[14] = Cmax in rat at 5 mg/kg, po by ESI-LCMS/MS analysis; assay type: ADME, organism-based; design: dose 5 mg/kg, route oral; details: in vivo
[15] = AUClast in mouse at 5 mg/kg, po measured after 6 hrs by ESI-LCMS/MS analysis; assay type: ADME, organism-based; details: in vivo
[16] = AUClast in rat at 5 mg/kg, po measured after 6 hrs by ESI-LCMS/MS analysis; assay type: ADME, organism-based; details: in vivo
Mus musculus [17] = experiment: Oral bioavailability in mouse at 5 mg/kg by ESI-LCMS/MS analysis; assay type: ADME, organism-based; details: in vivo
Mus musculus [18] = experiment: Half life in mouse at 5 mg/kg, iv by ESI-LCMS/MS analysis; assay type: ADME, organism-based; details: in vivo
[19] = Solubility of the compound in PBS buffer at pH 7.4 by HPLC analysis; assay type: physicochemical
[20] = Plasma concentration in doxycycline-inducible human DLD-1 cell xenografted mouse model at 25 mg/kg, po administered as single dose and measured after 24 hrs post dose by LC/MS analysis; assay type: ADME, organism-based
[21] = AUClast in rat at 5 mg/kg, po measured after 24 hrs by ESI-LCMS/MS analysis; assay type: ADME, organism-based; details: in vivo
Rattus norvegicus [22] = experiment: Half life in rat at 1 mg/kg, iv by ESI-LCMS/MS analysis; assay type: ADME, organism-based; details: in vivo
[23] = Volume of distribution at steady state in rat at 1 mg/kg, iv by ESI-LCMS/MS analysis; assay type: ADME, organism-based; details: in vivo, read-out: Vdss

| SMILES | logP [1] | IC50 [2] | IC50 [3] | Ki [3] | IC50 (CDK2/Cyclin A2) | Ki (CDK2/Cyclin A2) | CLH [4] | CLH [5] | solubility [19] | further results |
| --- | --- | --- | --- | --- | --- | --- | --- | --- | --- | --- |
| COc1cc(-c2cnn(C)c2)ccc1Nc1ncc2ccnc(NCC(C)(C)C)c2n1 | 4.27 | – | – | – | – | – | – | – | – | – |
| COc1cc(-c2cnn(C)c2C)ccc1Nc1ncc2ccnc(NCC(C)(C)C)c2n1 | 4.42 | 95 nM | 79 nM | 0.78 nM | 3000 nM | 1500 nM | – | – | – | – |
| COc1cc(-c2cnc(C)n2C)ccc1Nc1ncc2ccnc(NCC(C)(C)C)c2n1 | 4.27 | 44 nM | 8.5 nM | 0.084 nM | 86 nM | 43 nM | 92.5 µL/min/mg | – | – | – |
| COc1cc(-c2cnc(C)n2C)ccc1Nc1ncc2cc(C)nc(NCC(C)(C)C)c2n1 | 4.55 | 170 nM | 9.5 nM | 0.094 nM | 1400 nM | 720 nM | 34.5 µL/min/mg | 28.2 µL/min/mg | – | – |
| COc1cc(-c2cn(C)nc2C)ccc1Nc1ncc2ccnc(NCC(C)(C)C)c2n1 | 4.56 | 230 nM | 2500 nM | 24 nM | 2800 nM | 1400 nM | – | – | – | – |
| CCOc1cc(-c2nncn2C)ccc1Nc1ncc2cc(C)nc(N3CC4(CCOCC4)C3)c2n1 | 3.08 | 37 nM | 11 nM | 0.11 nM | 2500 nM | 1300 nM | 32.9 µL/min/mg | 9.4 µL/min/mg | 56.2 µM (≈ 27.3 µg/mL) | F (Rattus norvegicus [6]): 22%; t1/2 (Rattus norvegicus [7]): 1.5 h; clearance [8]: 7.59 mL/min/kg; PPB [9]: 98.09%; Cmax [10]: 3080 nM; Vd [11]: 1.21 L/kg; Vd [12]: 0.89 L/kg; clearance [13]: 22.6 mL/min/kg; Cmax [14]: 1180 nM; AUC(0-t) at 6 h [15]: 4.78 µM·h; AUC(0-t) at 6 h [16]: 5.16 µM·h; F (Mus musculus [17]): 63%; t1/2 (Mus musculus [18]): 0.66 h; concentration at 24 h [20]: < 10 nM |
| CCOc1cc(-c2nnc(CCN(C)C)n2C)ccc1Nc1ncc2cc(C)nc(NCC(C)(C)C)c2n1 | 4.75 | 230 nM | 12 nM | 0.12 nM | 360 nM | 180 nM | 27.7 µL/min/mg | 23 µL/min/mg | 77.6 µM (≈ 40.2 µg/mL) | – |
| CCOc1cc(-c2nncn2C)ccc1Nc1ncc2cc(C)nc(N3CCC3(C)C)c2n1 | 3.58 | 3800 nM | 400 nM | 4 nM | 26000 nM | 13000 nM | – | – | – | – |
| CCOc1cc(-c2nncn2C)ccc1Nc1ncc2cc(C)nc(N3CC(C)(C)C3)c2n1 | 3.85 | 37 nM | 8.9 nM | 0.088 nM | 1600 nM | 810 nM | 44.3 µL/min/mg | 25.2 µL/min/mg | 31.5 µM (≈ 14 µg/mL) | F (Rattus norvegicus [6]): 72%; t1/2 (Rattus norvegicus [7]): 3.03 h; clearance [8]: 7.35 mL/min/kg; PPB [9]: 99.28%; Cmax [10]: 2350 nM; Vd [11]: 2.09 L/kg; Vd [12]: 1.88 L/kg; clearance [13]: 16.3 mL/min/kg; Cmax [14]: 1420 nM; AUC(0-t) at 6 h [15]: 8.11 µM·h; F (Mus musculus [17]): 75%; AUC(0-t) at 24 h [21]: 18.3 µM·h; t1/2 (Mus musculus [18]): 1.58 h |
| CCOc1cc(-c2nnc(C)n2C)ccc1Nc1ncc2cc(C)nc(NCC(C)(C)C)c2n1 | 4.49 | 33 nM | 12 nM | 0.12 nM | 940 nM | 470 nM | 32.9 µL/min/mg | 20.4 µL/min/mg | 1.8 µM (≈ 0.829 µg/mL) | – |
| CCOc1cc(-c2nncn2C)ccc1Nc1ncc2cc(C)nc(N3CCCC3)c2n1 | 3.58 | 370 nM | 83 nM | 0.82 nM | 1100 nM | 550 nM | – | – | – | – |
| CCOc1cc(-c2nncn2C)ccc1Nc1ncc2cc(C)nc(N3CC(C)(C#N)C3)c2n1 | 3.25 | 110 nM | 20 nM | 0.2 nM | 2700 nM | 1400 nM | 24.7 µL/min/mg | 5.6 µL/min/mg | 6.8 µM (≈ 3.1 µg/mL) | – |
| CCOc1cc(-c2nncn2C)ccc1Nc1ncc2cc(C)nc(N[C@@H](C)C(C)(C)C)c2n1 | 4.61 | 23 nM | 4.7 nM | 0.047 nM | 150 nM | 77 nM | 25.3 µL/min/mg | 15.2 µL/min/mg | – | t1/2 (Rattus norvegicus [22]): 4.52 h; F (Rattus norvegicus [6]): 92%; Vd [23]: 1.88 L/kg; PPB [9]: 99.91%; Cmax [10]: 2920 nM; Vd [11]: 2.19 L/kg; clearance [13]: 8.4 mL/min/kg; Cmax [14]: 1890 nM; AUC(0-t) at 6 h [15]: 13.8 µM·h; F (Mus musculus [17]): 86%; t1/2 (Mus musculus [18]): 3.47 h |
| CCOc1cc(-c2nnc3n2CCC3)ccc1Nc1ncc2cc(C)nc(NCC(C)(C)C)c2n1 | 4.75 | 250 nM | 38 nM | 0.38 nM | > 10000 nM | > 5000 nM | 36.4 µL/min/mg | 18.6 µL/min/mg | – | – |
| COc1cc(-c2nnc3n2CCC3)ccc1Nc1ncc2cc(C)nc(NCC(C)(C)C)c2n1 | 4.4 | 240 nM | 19 nM | 0.19 nM | 250 nM | 130 nM | 28.8 µL/min/mg | 28.8 µL/min/mg | 1.7 µM (≈ 0.78 µg/mL) | – |
